In one data set the target is T1, Human 5-lipoxygenase (Homo sapiens, UniProt P09917).
T1 construct: purchased Cayman 60402; host or cells: insect cells
T1 sequence (P09917 1-674): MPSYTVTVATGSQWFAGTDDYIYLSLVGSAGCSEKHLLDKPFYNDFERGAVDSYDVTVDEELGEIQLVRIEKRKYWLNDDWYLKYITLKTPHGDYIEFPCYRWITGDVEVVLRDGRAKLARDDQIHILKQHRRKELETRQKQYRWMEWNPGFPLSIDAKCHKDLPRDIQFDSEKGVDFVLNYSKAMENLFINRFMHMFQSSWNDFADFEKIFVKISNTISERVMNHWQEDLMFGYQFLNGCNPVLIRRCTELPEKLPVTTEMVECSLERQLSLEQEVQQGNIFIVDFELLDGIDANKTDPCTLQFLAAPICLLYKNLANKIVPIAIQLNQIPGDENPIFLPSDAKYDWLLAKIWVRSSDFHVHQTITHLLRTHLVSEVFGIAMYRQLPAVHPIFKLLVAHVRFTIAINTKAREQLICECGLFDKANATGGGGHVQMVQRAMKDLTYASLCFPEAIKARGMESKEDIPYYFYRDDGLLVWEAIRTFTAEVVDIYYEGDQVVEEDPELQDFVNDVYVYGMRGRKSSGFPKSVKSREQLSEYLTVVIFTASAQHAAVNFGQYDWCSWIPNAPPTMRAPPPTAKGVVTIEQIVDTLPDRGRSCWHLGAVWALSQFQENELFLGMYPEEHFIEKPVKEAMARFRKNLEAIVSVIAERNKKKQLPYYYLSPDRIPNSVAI
The data set can be described thus: Activity of compounds against 5-LO enzyme (LTB4 measurement and/or fluorescence method). The class given is biochemical. The settings on record: for inhibition at 10 µM: 5-LO, single concentration of 10 uM in duplicate; for IC50: 6 or 11 point dose response in duplicate. The method, boiled down: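 Insect-cell human 5-LO preincubated 15 min at RT with compound (pH 7.4, 2 mM CaCl2, 0.1 mM ATP, 1% DMSO), then 3 uM arachidonic acid for 5 min at 37 °C; LTB4 quantified by EIA and/or LC/MS/MS. Alternatively, fluorescence of 5-HpETE via H2DCFDA, 100 uM ATP, 3 uM arachidonic acid, 5 min, RT; single 10 uM screen then 6- or 11-point IC50.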

Structures are written as SMILES.

Usually inhibition stands for the change of the read-out against control, counted positive when it falls. High values mean a strong effect, low ones a weak effect. The term IC50 denotes the concentration that inhibits the measured activity by half. The term melting point denotes the temperature of the solid-liquid transition. Compound `CCc1nc2cc(Cl)ccn2c1C(=O)NCc1ccc(N2CCC(Oc3ccc(F)cc3)CC2)cc1` [compound 70, 7-Chloro-2-ethyl-N-(4-(4-(4-fluorophenoxy)piperidin-1-yl)benzyl)imidazo[1,2-a]pyridine-3-carboxamide] gave a melting point of 138 to 139 °C. At Human 5-lipoxygenase, this compound showed an inhibition at 10 µM greater than 69% and an IC50 of 1 to 20 µM.
`CCc1nc2cc(Cl)ccn2c1C(=O)NCc1ccc(N2CCOCC2)cc1` [compound 93, 7-Chloro-2-ethyl-N-(4-morpholinobenzyl)imidazo[1,2-a]pyridine-3-carboxamide] registered a melting point of 195 °C. Also, on Human 5-lipoxygenase, the inhibition at 10 µM was less than 40%.
As for `CCc1nc2cc(C)ccn2c1C(=O)NCc1ccc(N2CCOCC2)cc1` [compound 94, 2-Ethyl-7-methyl-N-(4-morpholinobenzyl)imidazo[1,2-a]pyridine-3-carboxamide], the melting point amounted to 190 °C. This compound also returned an inhibition at 10 µM against Human 5-lipoxygenase of less than 40%.
On the same counts, the results for `CCc1nc2cc(C)ccn2c1C(=O)NCc1ccc2ccccc2c1` [compound 95, 2-Ethyl-7-methyl-N-(naphthalen-2-ylmethyl)imidazo[1,2-a]pyridine-3-carboxamide] are 192 °C and 40 to 69%.
As for `CCCC(=O)NCc1ccc(N2CCN(c3ccc(CNC(=O)c4c(CC)nc5cc(Cl)ccn45)cc3)CC2)cc1` [compound 125, N-(4-(4-(4-(Butyramidomethyl)phenyl)piperazin-1-yl)benzyl)-7-chloro-2-ethylimidazo[1,2-a]pyridine-3-carboxamide], the melting point lay within 238 to 239.2 °C. This compound also came in with an inhibition at 10 µM on Human 5-lipoxygenase of 40 to 69%.
As for `CCc1nc2cc(Cl)ccn2c1C(=O)NCc1ccc(N2CCN(Cc3ccc(F)cc3)CC2)cc1` [compound 126, 7-Chloro-2-ethyl-N-(4-(4-(4-fluorobenzyl)piperazin-1-yl)benzyl)imidazo[1,2-a]pyridine-3-carboxamide], the melting point is 141 to 142 °C. On Human 5-lipoxygenase, the inhibition at 10 µM is greater than 69% and the IC50 lay in the range of 1 to 20 µM.
`CCc1nc2ccc(Cl)cn2c1CN1CCC(OCc2ccc(OC(F)(F)F)cc2)CC1` [compound 347, 6-chloro-2-ethyl-3-((4-((4-(trifluoromethoxy)benzyl)oxy)piperidin-1-yl)methyl)imidazo[1,2-a]pyridine] showed an inhibition at 10 µM against Human 5-lipoxygenase greater than 69%.
For the compound `CCc1nc2cc(Cl)ccn2c1-c1nnc(Cc2ccc(F)cc2)o1` [compound 348, 2-(7-chloro-2-ethylimidazo[1,2-a]pyridin-3-yl)-5-(4-fluorobenzyl)-1,3,4-oxadiazole], the inhibition at 10 µM against Human 5-lipoxygenase was less than 40%.
The compound `CCc1nc2ccc(Cl)cn2c1CN1CCC(CCc2ccc(F)cc2)CC1` [compound 349, 6-chloro-2-ethyl-3-((4-(4-fluorophenethyl)piperidin-1-yl)methyl)imidazo[1,2-a]pyridine] gave an inhibition at 10 µM against Human 5-lipoxygenase of 40 to 69%.
On Human 5-lipoxygenase, `CCc1nc2ccc(Cl)cn2c1C(=O)N1CCC(Cn2cc(C(O)(CC)C(F)(F)F)nn2)CC1` (stereo not drawn) [compound 350, (6-chloro-2-ethylimidazo[1,2-a]pyridin-3-yl)(4-((4-(1,1,1-trifluoro-2-hydroxybutan-2-yl)-1H-1,2,3-triazol-1-yl)methyl)piperidin-1-yl)methanone] came in with an inhibition at 10 µM of less than 40%.
`CCc1nc2ccccn2c1CN1CCC(Cn2cc(C(O)(CC)C(F)(F)F)nn2)CC1` (stereo not drawn) [compound 351, 2-(1-((1-((2-ethylimidazo[1,2-a]pyridin-3-yl)methyl)piperidin-4-yl)methyl)-1H-1,2,3-triazol-4-yl)-1,1,1-trifluorobutan-2-ol] gave an inhibition at 10 µM against Human 5-lipoxygenase of less than 40%.
The same measure, in the same setting: as for `CCc1nc2ccccn2c1C(=O)NCc1ccc(CC2CCOCC2)cc1` [compound 357, 2-ethyl-N-(4-((tetrahydro-2H-pyran-4-yl)methyl)benzyl)imidazo[1,2-a]pyridine-3-carboxamide], the figure is less than 40%; as for `CCc1nc2ccc(Cl)cn2c1C(=O)NCc1nc2ccc(Cl)cc2[nH]1` [compound 365, 6-chloro-N-((6-chloro-1H-benzo[d]imidazol-2-yl)methyl)-2-ethylimidazo[1,2-a]pyridine-3-carboxamide], less than 40%; as for `CCc1nc2cc(Cl)ccn2c1CNc1ccc(NC2CCN(c3ccc(F)cc3)CC2)cc1` [compound 375, N1-((7-chloro-2-ethylimidazo[1,2-a]pyridin-3-yl)methyl)-N4-(1-(4-fluorophenyl)piperidin-4-yl)benzene-1,4-diamine], greater than 69%.
The same measure, in the same setting: for `CCc1nc2cc(Cl)ccn2c1CNc1ccc(N2CCC(c3ccc(OC(F)(F)F)cc3)CC2)cc1` [compound 376, N-((7-chloro-2-ethylimidazo[1,2-a]pyridin-3-yl)methyl)-4-(4-(4-(trifluoromethoxy)phenyl)piperidin-1-yl)aniline] the value was greater than 69%.
For the compound `CCc1nc2cc(Cl)ccn2c1C(=O)N1CCC(Oc2ccc(OC(F)(F)F)cc2)CC1` [compound 380, (7-Chloro-2-ethylimidazo[1,2-a]pyridin-3-yl)(4-(4-(trifluoromethoxy)phenoxy)piperidin-1-yl)methanone], at Human 5-lipoxygenase, the IC50 was less than 1 µM.
In the case of `CCc1nc2ccc(Cl)cn2c1CNCc1ccc(N2CCN(c3ccc(F)cc3)CC2)cc1` [compound 381, 1-(6-chloro-2-ethylimidazo[1,2-a]pyridin-3-yl)-N-(4-(4-(4-fluorophenyl)piperazin-1-yl)benzyl)methanamine], at Human 5-lipoxygenase, the IC50 was 1 to 20 µM.
Still for that read-out and setting: for `CCc1nc2ccc(Cl)cn2c1C(=O)N1CCCC(OCc2ccc(OC(F)(F)F)cc2)C1` (stereo not drawn) [compound 382, (6-chloro-2-ethylimidazo[1,2-a]pyridin-3-yl)(3-(4-(trifluoromethoxy)benzyloxy)-piperidin-1-yl)methanone] the value was 1 to 20 µM; for `CCc1nc2ncccn2c1C(=O)N1CCC(OCc2ccc(OC(F)(F)F)cc2)CC1` [compound 385, (2-Ethylimidazo[1,2-a]pyrimidin-3-yl)(4-((4-(trifluoromethoxy)benzyl)oxy)piperidin-1-yl)methanone], greater than 20 µM.
Regarding `CCc1nc2cccnn2c1C(=O)N1CCC(OCc2ccc(OC(F)(F)F)cc2)CC1` [compound 387, (2-Ethylimidazo[1,2-b]pyridazin-3-yl)(4-((4-(trifluoromethoxy)benzyl)oxy)piperidin-1-yl)methanone], the IC50 at Human 5-lipoxygenase is greater than 20 µM.
Still for that read-out and setting: for `CCc1nc2cccnn2c1C(=O)NCc1ccc(-c2ccc(Cl)cc2)cc1` [compound 388, N-((4′-Chloro-[1,1′-biphenyl]-4-yl)methyl)-2-ethylimidazo[1,2-b]pyridazine-3-carboxamide] the value was greater than 20 µM; for `CCc1nc2cnccn2c1C(=O)N1CCC(OCc2ccc(OC(F)(F)F)cc2)CC1` [compound 389, (2-Ethylimidazo[1,2-a]pyrazin-3-yl)(4-((4-(trifluoromethoxy)benzyl)oxy)piperidin-1-yl)methanone], greater than 20 µM.
On the same count and under the same terms, for `CCc1nc2ccc(Cl)cn2c1C(=O)N1CC[C@H](OCc2ccc(OC(F)(F)F)cc2)C1` [compound 390, (S)-(6-chloro-2-ethylimidazo[1,2-a]pyridin-3-yl)(3-(4-(trifluoromethoxy)benzyloxy)-pyrrolidin-1-yl)methanone] the value was 1 to 20 µM.
Same read-out and setting: for `CCc1nc2ccc(Cl)cn2c1C(=O)N1CC[C@@H](OCc2ccc(OC(F)(F)F)cc2)C1` [compound 391, (R)-(6-chloro-2-ethylimidazo[1,2-a]pyridin-3-yl)(3-(4-(trifluoromethoxy)benzyloxy)-pyrrolidin-1-yl)methanone] the value was 1 to 20 µM; for `CCc1nc2cc(Cl)ccn2c1C(=O)N1CCC(OCc2ccc(OC(F)(F)F)cc2)CC1` [compound 393, (7-chloro-2-ethylimidazo[1,2-a]pyridin-3-yl)(4-(4-(trifluoromethoxy)benzyloxy)piperidin-1-yl)methanone], less than 1 µM.
The compound `CCc1nc2ccc(Cl)cn2c1CNc1ccc(Oc2ccc(OC(F)(F)F)cc2)cc1` [compound 394, N-((6-chloro-2-ethylimidazo[1,2-a]pyridin-3-yl)methyl)-4-(4-(trifluoromethoxy)-phenoxy)aniline] yielded an IC50 against Human 5-lipoxygenase of less than 1 µM.
As for `CCc1nc2ccc(Cl)cn2c1CN1CCN(c2ccc(F)cc2)CC1` [compound 397, 6-chloro-2-ethyl-3-((4-(4-fluorophenyl)piperazin-1-yl)methyl)imidazo[1,2-a]pyridine], on Human 5-lipoxygenase, the IC50 was greater than 20 µM.
Compound `CCc1nc2cnccn2c1CNc1ccc(N2CCN(c3ccc(F)cc3)CC2)cc1` [compound 398, N-((2-Ethylimidazo[1,2-a]pyrazin-3-yl)methyl)-4-(4-(4-fluorophenyl)piperazin-1-yl)aniline] showed an IC50 against Human 5-lipoxygenase of less than 1 µM.

The values above are taken from US9029389B2 (Institut Pasteur Korea, priority 2011, dated 2015).
